Measured values: ChEMBL document CHEMBL3507680, “University of Dundee, Gates Library screen for HepG2 cell viability”

Assay: Human HepG2 cell viability assay in 384 well format
Type: toxicity, cell-based
Parameters: dose 125 nL, time 70.5 hour; cytotoxicity at 70.5 h: concentration not given beside the values
Details: HepG2 cells, read-out: Inhibition

Row | SMILES | cytotoxicity at 70.5 h
1 | Cc1cc(=O)n2nc(Oc3ccc(C#N)cc3Cl)sc2n1 | -28%
2 | Cc1csc(CNC(=O)N(C)Cc2nnc3n2CCC3)n1 | -12.1%
3 | Cc1cccc(-c2nc(C)nn2CN2CCC3(CC2)OCCO3)c1 | 11.8%
4 | Cc1cnn(C2CN(Cc3noc(-c4ccccc4)n3)C2)c1 | -7.62%
5 | Cc1cc(NC2CCN(c3ccccc3)C2)n2ncnc2n1 (centres undefined) | -5.01%
6 | CCN(CC)S(=O)(=O)c1ccc(CNC(=O)c2cc(C)on2)cc1 | -2.55%
7 | O=C(NCCN1CCOCC1)Nc1cc(F)ccc1-n1cccn1 | -0.85%
8 | NC(=O)CN1CCC(Nc2ccnc3ccc(Cl)cc23)CC1 | -1.05%
9 | Cc1ccc(S(C)(=O)=O)cc1C(=O)NS(=O)(=O)c1ccc(Cl)cc1 | -4.48%
10 | Cc1nn(C)cc1C(=O)N1CCC(CSc2ccccc2)C1 (centres undefined) | -1.58%
11 | Cc1cccc(-c2nc(C)nn2CN2CCN(c3ncccn3)CC2)c1 | -5.76%
12 | Cc1csc(N2CCCN(C(=O)CCN3CCCC3=O)CC2)n1 | -8.02%
13 | CCc1ncnc(N(C)CC2CCCCO2)c1F (centres undefined) | 2.36%
14 | Cc1ncsc1C(=O)NCCN1CCCCCC1=O | -12.3%
15 | COCCN(C)c1cnn(C)c(=O)c1Br | -14.7%
16 | CC(c1ncc(-c2ccccc2)o1)N1CCN(C(=O)N(C)C)CC1 (centres undefined) | -2.55%
17 | CN(CCc1ccccn1)c1cnn(C)c(=O)c1Br | -11.5%
18 | Cc1cc(=O)n2nc(Oc3cccc(C(N)=O)c3)sc2n1 | -25%
19 | Cc1cc(=O)n2nc(Oc3ccc(F)c(F)c3)sc2n1 | 40.7%
20 | Cc1cc(=O)n2nc(Oc3cc(Cl)cc(Cl)c3)sc2n1 | -19.3%
21 | Cc1ncsc1C(=O)NCCCN1CCCCCC1=O | -7.13%
22 | CC(C)Oc1ncccc1CNC(=O)NC(C)c1cccs1 (centres undefined) | -21%
23 | O=C(NCc1cc(Br)cs1)Nc1cn[nH]c1 | -23.7%
24 | O=C(NCc1csc(Br)c1)Nc1cn[nH]c1 | 39.3%
25 | Cc1cc(Cl)c(C)c(S(=O)(=O)N2CCN(Cc3ccncc3)CC2)c1Cl | -25.9%
26 | CC(=O)N1CC[C@@H]2O[C@H](C(=O)Nc3nc(C)cs3)C[C@@H]21 | -3.43%
27 | CCN(C(=O)c1nc2c(s1)CCCN2S(C)(=O)=O)C(C)C | 13.1%

Row | SMILES | cytotoxicity at 70.5 h
28 | c1cc(COC[C@@]23CCC[C@@H]2CN(C2CCOCC2)C3)ccn1 | -2.91%
29 | O=C1CO[C@@H]2CN(S(=O)(=O)c3ccccc3F)C[C@H]2N1 | -3.37%
30 | Cn1cc(CN2CCc3onc(C(=O)Nc4cccnc4)c3C2)cn1 | -3.27%
31 | CN(C)C(=O)[C@H]1CCS(=O)(=O)[C@@H]2CN(c3ncc(F)cn3)C[C@H]12 | 23.5%
32 | O=S(=O)(c1cccs1)N1Cc2nc(COCC3CC3)oc2C1 | -5.06%
33 | CC(=O)N1CCC2(CC1)CN(C(C)C)c1ccc(F)cc12 | -1.77%
34 | Cc1ccc2c(c1)C1(CCN(C(N)=O)CC1)CN2CC1CC1 | -1.07%
35 | CC(C)N(C)Cc1ncn2c1CN(C(=O)C1CCCO1)CCC2 (centres undefined) | -0.921%
36 | c1cc2nc(C3CCNCC3)nn2cc1NC1CCC1 | 23.2%
37 | CCc1ncnc2c1CCN(S(=O)(=O)c1ccccc1)CC2 | 3.38%
38 | CN(C)C[C@@H]1C[C@@H]2CN(Cc3nccn3C)CC[C@@H]2N1CC1CC1 | -0.157%
39 | CCS(=O)(=O)N1Cc2cncn2CC(C(=O)NCC2CC2)C1 (centres undefined) | 1.86%
40 | Cn1cc(C2COC3(CCN(C(=O)Cc4ccccc4)CC3)C2)cn1 (centres undefined) | -8.09%
41 | Cc1cccc(S(=O)(=O)N2Cc3nccn3CC(CN(C)C)C2)c1 (centres undefined) | -8.23%
42 | O=C1N(c2ccsc2)CCC12CCCN(c1ncc(F)cn1)C2 (centres undefined) | -9.83%
43 | CCOCC1CN(S(=O)(=O)c2ccccc2)Cc2nccn2C1 (centres undefined) | 13.5%
44 | COCC1CC2(CCN(Cc3nc(C)cs3)CC2)CO1 (centres undefined) | -8.71%
45 | CCS(=O)(=O)N1CCc2c(COCc3ccncc3)cncc2C1 | 18.9%
46 | CN(C)CCNCC1COCc2c(-c3ccnn3C)nnn2C1 (centres undefined) | 16.1%
47 | CC(=O)N1CCC2(CC1)c1ncc(-c3ccc(F)cc3)n1CCN2C | -3.18%
48 | O=C(NCc1ccccc1)N1CCc2ncnc(NC3CC3)c2CC1 | -3.8%
49 | CC(C)CN1C[C@H]2N(c3ncccn3)CCC[C@@]2(C(=O)NCC2CC2)C1 | -3.44%
50 | CC1(C)CC1(C(=O)N1CC(c2cccnc2)C1)c1ccc(F)cc1 (centres undefined) | 29.7%
51 | Cn1cc(C(=O)NCc2cncc3c2CCN(S(C)(=O)=O)C3)cn1 | 0.567%
52 | Cn1cc(C(=O)NCc2cncc3c2CCN(c2ccccn2)C3)cn1 | 17.4%
53 | COCC1COCCC12CCN(S(=O)(=O)c1cccnc1)CC2 (centres undefined) | -1.01%
54 | Cc1noc(C)c1CN1CCn2cc(CN3CCCCC3)nc2C1 | -3.15%

Row | SMILES | cytotoxicity at 70.5 h
55 | CN1C(=O)CCC12CCCN(C(=O)c1ccncc1F)C2 (centres undefined) | -5.46%
56 | Cn1cnc(S(=O)(=O)N2CC3(CCN(c4ccccc4)C3)C2)c1 | 20.3%
57 | c1ccc(N2CCOC3(CCCN(c4ncccn4)C3)C2)nc1 (centres undefined) | -5.71%
58 | Cc1ccc(N2CCC3(CCC(=O)N3Cc3ccncc3)CC2)nn1 | 0.778%
59 | O=C(c1ccco1)N1CC[C@@H]2CN(C3CCOCC3)CCO[C@@H]2C1 | 0.698%
60 | CC1c2ncc(Cn3cccn3)n2CCN1c1ncccn1 (centres undefined) | -8.84%
61 | CN(C)c1nc(N2CCCC2)nc2c1CCN(Cc1nccn1C)CC2 | 8.52%
62 | CCCN1CCC(c2nc3ccc(-c4ccccc4)cn3n2)CC1 | -10.7%
63 | O=C(C1CCOC1)N1C[C@H]2CN(Cc3ccncc3)C(=O)[C@H]2C1 (some centres undefined) | -9.99%
64 | CCN(C)c1ncnc2c1CCN(S(=O)(=O)c1ccccc1)CC2 | -5.89%
65 | CC(=O)N1CCC(c2nc3ccc(NC4CCC4)cn3n2)CC1 | -5.56%
66 | Cc1ccc(CS(=O)(=O)N2Cc3c(CN(C)C)nn(C)c3C2)cc1 | -4.61%
67 | O=c1cc(CNS(=O)(=O)C2CC2)nc2n1CCCN(CC1CC1)C2 | -5.1%
68 | CN(C)CCN1C[C@@H]2CN(c3ccccc3)C[C@@H]2C1=O | 23.6%
69 | CN1C[C@H]2N(c3ncccn3)CCC[C@@]2(C(=O)NCC2CC2)C1 | -6.84%
70 | O=C(NCc1cccnc1)N1CCc2ncnc(NC3CC3)c2CC1 | 11.7%
71 | Cc1cccc(N2CC[C@H]3[C@H](CO[C@@H]3CN(C)Cc3ccco3)C2)n1 | 2.69%
72 | Cc1ccc(N2CC[C@H]3CO[C@H](CN(C)Cc4ccco4)[C@H]3C2)nn1 | -0.777%
73 | CCOC(=O)[C@]12CCCN(Cc3cccs3)C[C@H]1CN(C(C)C)C2 | 1.55%
74 | Cc1ccc(CN2C[C@H](OCCN(C)C)[C@H]3COC[C@H]32)o1 | -0.961%
75 | c1coc(CN2C[C@@H]3CN(Cc4ccoc4)CCO[C@@H]3C2)c1 | -1.5%
76 | Cn1cnc(S(=O)(=O)N2CC3(CCN(CC4CC4)C3)C2)c1 | 14.6%
77 | CCCN1CCC(c2nc3ccc(-c4ccncc4)cn3n2)CC1 | 19.7%
78 | Cc1noc(C)c1CN1CCc2ncnc(-c3cccnc3)c2CC1 | -0.64%
79 | O=C(C1CCCO1)N1CCC2(CC1)COCCN(Cc1cccnc1)C2 (centres undefined) | -2.16%
